Source: ChEMBL document CHEMBL3885881, “DrugMatrix”

Species: Rattus norvegicus
Test: DrugMatrix - Regimen: Daily Repeat
Type: toxicity, organism-based, Sprague-Dawley
Design: regimen Daily Repeat, gender Male, age 6-8 weeks
Conditions: in vivo, po, route oral GAVAGE, dose level High, vehicle 100 % WATER; for BASOPHIL / EOSINOPHIL / ERYTHROCYTE COUNT / HEMATOCRIT / HEMOGLOBIN / LEUKOCYTE COUNT / LYMPHOCYTE / MEAN CORPUSCULAR HEMOGLOBIN / MEAN CORPUSCULAR HEMOGLOBIN CONCENTRATION / MEAN CORPUSCULAR VOLUME / MONOCYTE / NEUTROPHIL / PLATELET COUNT / ABSOLUTE BASOPHIL / ABSOLUTE EOSINOPHIL / ABSOLUTE LYMPHOCYTE / ABSOLUTE MONOCYTE: tissue Blood; for ALANINE AMINOTRANSFERASE / ALBUMIN / ALKALINE PHOSPHATASE / ASPARTATE AMINOTRANSFERASE / BLOOD UREA NITROGEN / CARBON DIOXIDE / CHLORIDE / CHOLESTEROL / CREATINE PHOSPHOKINASE / CREATININE / GLUCOSE / LACTATE DEHYDROGENASE / LIPASE / PHOSPHORUS / POTASSIUM / SODIUM / TOTAL BILIRUBIN / TOTAL PROTEIN / URIC ACID: tissue Plasma

SMILES: COCCc1ccc(OCC(O)CNC(C)C)cc1 (configuration not stated) [METOPROLOL]
- BASOPHIL (120 mg/kg, 120 h, time 5 day): 0.67%
- EOSINOPHIL (120 mg/kg, 120 h, time 5 day): 4.2%
- ERYTHROCYTE COUNT (120 mg/kg, 120 h, time 5 day): 7.04 x10E6/uL
- HEMATOCRIT (120 mg/kg, 120 h, time 5 day): 45.37%
- HEMOGLOBIN (120 mg/kg, 120 h, time 5 day): 14.97 G/DL
- LEUKOCYTE COUNT (120 mg/kg, 120 h, time 5 day): 9.83 x10E3/uL
- LYMPHOCYTE (120 mg/kg, 120 h, time 5 day): 70.57%
- MEAN CORPUSCULAR HEMOGLOBIN (120 mg/kg, 120 h, time 5 day): 21.3 pg
- MEAN CORPUSCULAR HEMOGLOBIN CONCENTRATION (120 mg/kg, 120 h, time 5 day): 33 G/DL
- MEAN CORPUSCULAR VOLUME (120 mg/kg, 120 h, time 5 day): 64.57 fL
- MONOCYTE (120 mg/kg, 120 h, time 5 day): 2.6%
- NEUTROPHIL (120 mg/kg, 120 h, time 5 day): 21.47%
- PLATELET COUNT (120 mg/kg, 120 h, time 5 day): 1018.67 x10E3/uL
- ALANINE AMINOTRANSFERASE (120 mg/kg, 120 h, time 5 day): 28.67 u/L
- ALBUMIN (120 mg/kg, 120 h, time 5 day): 3.9 G/DL
- ALKALINE PHOSPHATASE (120 mg/kg, 120 h, time 5 day): 427.33 u/L
- ASPARTATE AMINOTRANSFERASE (120 mg/kg, 120 h, time 5 day): 68.67 u/L
- BLOOD UREA NITROGEN (120 mg/kg, 120 h, time 5 day): 16.33 mg/dL
- CARBON DIOXIDE (120 mg/kg, 120 h, time 5 day): 38.33 mmol/L
- CHLORIDE (120 mg/kg, 120 h, time 5 day): 106.67 MEQ/L
- CHOLESTEROL (120 mg/kg, 120 h, time 5 day): 62.33 mg/dL
- CREATINE PHOSPHOKINASE (120 mg/kg, 120 h, time 5 day): 168 u/L
- CREATININE (120 mg/kg, 120 h, time 5 day): 0.4 mg/dL
- GLUCOSE (120 mg/kg, 120 h, time 5 day): 168 mg/dL
- LACTATE DEHYDROGENASE (120 mg/kg, 120 h, time 5 day): 97 u/L
- LIPASE (120 mg/kg, 120 h, time 5 day): 14 u/L
- PHOSPHORUS (120 mg/kg, 120 h, time 5 day): 11.37 mg/dL
- POTASSIUM (120 mg/kg, 120 h, time 5 day): 6.67 MEQ/L
- SODIUM (120 mg/kg, 120 h, time 5 day): 147.67 MEQ/L
- TOTAL BILIRUBIN (120 mg/kg, 120 h, time 5 day): 0.47 mg/dL
- TOTAL PROTEIN (120 mg/kg, 120 h, time 5 day): 6.33 G/DL
- URIC ACID (120 mg/kg, 120 h, time 5 day): 1.27 mg/dL
- ABSOLUTE BASOPHIL (120 mg/kg, […], time 14 day): 90 cells/µL
- ABSOLUTE EOSINOPHIL (120 mg/kg, […], time 14 day): 60 cells/µL
- ABSOLUTE LYMPHOCYTE (120 mg/kg, […], time 14 day): 10900 cells/µL
- ABSOLUTE MONOCYTE (120 mg/kg, […], time 14 day): 270 cells/µL
- BASOPHIL (120 mg/kg, […], time 14 day): 0.67%
- EOSINOPHIL (120 mg/kg, […], time 14 day): 0.43%
- ERYTHROCYTE COUNT (120 mg/kg, […], time 14 day): 6.79 x10E6/uL
- HEMATOCRIT (120 mg/kg, […], time 14 day): 41.53%
- HEMOGLOBIN (120 mg/kg, […], time 14 day): 14.17 G/DL
- LEUKOCYTE COUNT (120 mg/kg, […], time 14 day): 13.77 x10E3/uL
- LYMPHOCYTE (120 mg/kg, […], time 14 day): 78.87%
- MEAN CORPUSCULAR HEMOGLOBIN (120 mg/kg, […], time 14 day): 20.87 pg
- MEAN CORPUSCULAR HEMOGLOBIN CONCENTRATION (120 mg/kg, […], time 14 day): 34.13 G/DL
- MEAN CORPUSCULAR VOLUME (120 mg/kg, […], time 14 day): 61.17 fL
- MONOCYTE (120 mg/kg, […], time 14 day): 1.33%
- NEUTROPHIL (120 mg/kg, […], time 14 day): 17.47%
- PLATELET COUNT (120 mg/kg, […], time 14 day): 1228.67 x10E3/uL
- ALANINE AMINOTRANSFERASE (120 mg/kg, […], time 14 day): 37 u/L
- ALBUMIN (120 mg/kg, […], time 14 day): 3.63 G/DL
- ALKALINE PHOSPHATASE (120 mg/kg, […], time 14 day): 379.33 u/L
- ASPARTATE AMINOTRANSFERASE (120 mg/kg, […], time 14 day): 68.67 u/L
- BLOOD UREA NITROGEN (120 mg/kg, […], time 14 day): 17.67 mg/dL
- CARBON DIOXIDE (120 mg/kg, […], time 14 day): 40.67 mmol/L
- CHLORIDE (120 mg/kg, […], time 14 day): 107.33 MEQ/L
- CHOLESTEROL (120 mg/kg, […], time 14 day): 51 mg/dL
- CREATINE PHOSPHOKINASE (120 mg/kg, […], time 14 day): 304.67 u/L
- CREATININE (120 mg/kg, […], time 14 day): 0.37 mg/dL
- GLUCOSE (120 mg/kg, […], time 14 day): 183.33 mg/dL
- LACTATE DEHYDROGENASE (120 mg/kg, […], time 14 day): 123.33 u/L
- LIPASE (120 mg/kg, […], time 14 day): 10.67 u/L
- PHOSPHORUS (120 mg/kg, […], time 14 day): 9.23 mg/dL
- POTASSIUM (120 mg/kg, […], time 14 day): 6.17 MEQ/L
- SODIUM (120 mg/kg, […], time 14 day): 144 MEQ/L
- TOTAL BILIRUBIN (120 mg/kg, […], time 14 day): 0.4 mg/dL
- TOTAL PROTEIN (120 mg/kg, […], time 14 day): 5.9 G/DL
- URIC ACID (120 mg/kg, […], time 14 day): 0.17 mg/dL
- ABSOLUTE BASOPHIL (1200 mg/kg, 72 h, time 3 day): 0 CELLS/uL
- ABSOLUTE EOSINOPHIL (1200 mg/kg, 72 h, time 3 day): 286.33 CELLS/uL
- ABSOLUTE LYMPHOCYTE (1200 mg/kg, 72 h, time 3 day): 11270.67 CELLS/uL
- ABSOLUTE MONOCYTE (1200 mg/kg, 72 h, time 3 day): 0 CELLS/uL
